# In publication PMC2810346 (Journal of the American Chemical Society, 2010):
# Peptide text beside a SMILES is read from it.
# What was measured:
# [1] = target: GST-p300 (p300 CH1 domain) (Homo sapiens, UniProt Q09472); assay: Isothermal titration microcalorimetry; type: binding; settings: for affinity for GST-p300 (in words): isothermal titration microcalorimetry
# [2] = system: HIF-1α induced transcription of VEGF gene in HeLa cells; settings: ref [18]; cited from earlier work
# [3] = system: cell density and population doubling; assay: Cell viability assay; type: cell-based; settings: monitored up to 72 h, 1 μM peptide, 200 nM chetomin
# [4] = type: physicochemical; settings: 10% trifluoroethanol in phosphate buffered saline (pH 6.3); for % helicity: circular dichroism, estimated from mean residue ellipticity at 222 nm
# [5] = system: GST-p300; CH1 domains of CBP (or p300); assay: CD spectrum of GST-p300 / CH1 structural change on addition of compound; settings: circular dichroism of GST-p300 with HBS 2 added
# [6] = system: HIF-1α induced transcription of VEGF gene in HeLa cells; type: cell-based; settings: qRT-PCR, hypoxic conditions (DFO), 12 and 24 h incubation
# Sequence of GST-p300 (p300 CH1 domain) (Q09472 331-417 limits assumed): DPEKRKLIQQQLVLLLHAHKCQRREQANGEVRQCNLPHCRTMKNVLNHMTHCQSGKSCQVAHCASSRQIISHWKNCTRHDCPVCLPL
smiles,measurement,setting,value
CC(=O)N[C@H](C(=O)N[C@@H](C)C(=O)N[C@@H](C)C(=O)N[C@@H](CC(=O)O)C(=O)N[C@@H](CS)C(=O)N[C@@H](CCC(=O)O)C(=O)N[C@@H](Cc1ccc(O)cc1)C(=O)N[C@@H](CC(N)=O)C(=O)N[C@@H](C)C(=O)N[C@@H](CCCNC(=N)N)C(=O)O)[C@@H](C)O [compound 4] (Ac-TAADCEYNAR-OH),Kd,[1],825 ± 50 nM
CN1C(=O)[C@]2(Cc3cn([C@]45C[C@@]67SS[C@@](CO)(C(=O)N6[C@H]4Nc4ccccc45)N(C)C7=O)c4ccccc34)SS[C@@]1(CO)C(=O)N2C [chetomin],"inhibition of VEGF transcription, literature (in words)",[2],known potent inhibitor of VEGF transcription
C[C@H](NC(=O)[C@H](CC(N)=O)NC(=O)[C@H](Cc1ccc(O)cc1)NC(=O)[C@H](CCC(=O)O)NC(=O)[C@H](CS)NC(=O)[C@H](CC(=O)O)NC(=O)[C@H](C)N1C/C=C/CCC(=O)N[C@@H]([C@@H](C)O)C(=O)N[C@@H](C)C1=O)C(=O)N[C@@H](CCCNC(=N)N)C(N)=O [compound 2],cytotoxicity (in words),[3],does not display significant cytotoxicity
same,solution conformation by CD (in words),[4]; listed as HBS 2,more helical than HBS 1
same,% helicity,[4],53%
same,effect on CD spectrum of GST-p300 (in words),[5],does not alter the CD spectrum of GST-p300
same,affinity for GST-p300 (in words),[1],does not have a detrimental effect on the ability of HBS 2 to bind GST-p300
C[C@H](NC(=O)[C@H](CC(N)=O)NC(=O)[C@H](Cc1ccc(O)cc1)NC(=O)[C@H](CCC(=O)O)NC(=O)[C@H](CS)NC(=O)[C@H](CC(=O)O)NC(=O)[C@H](C)N1C/C=C/CCC(=O)N[C@@H]([C@@H](C)O)C(=O)N[C@@H](C)C1=O)C(N)=O [compound 1],% helicity,[4],40%
same,inhibition of VEGF transcription (in words),[6],did not show measurable inhibition of transcription
same,affinity for GST-p300 (in words),[1],submicromolar affinity
